Results as given in the NIST ThermoML archive (doi:10.1021/je700271n).
± gives the expanded uncertainty stated by the source.

Details: Liquid

SMILES | vapor or sublimation pressure (273.15 K) | vapor or sublimation pressure (283.15 K) | vapor or sublimation pressure (293.15 K) | vapor or sublimation pressure (303.15 K) | vapor or sublimation pressure (313.15 K) | vapor or sublimation pressure (323.15 K)
FC(C(F)(F)F)C(F)(F)F [1,1,1,2,3,3,3-heptafluoropropane] | 195 ± 3 kPa | 280 ± 4 kPa | 389 ± 5 kPa | 527 ± 7 kPa | 704 ± 9 kPa | 920 ± 11 kPa
CCC [propane] | 476 ± 6 kPa | 632 ± 8 kPa | 833 ± 10 kPa | 1079 ± 13 kPa | 1366 ± 17 kPa | 1709 ± 21 kPa
